Converted amounts (≈) assume the structure as drawn.
Tested on: P388
Assay: Cytotoxicity against mouse P388 cells
Assay type: functional
Conditions: read-out: ED50 (the source's name)

## COc1cc2cc(COC(C)=O)c(C(=O)O[C@@H]3O[C@H](CO)[C@@H](O)[C@H](O)[C@H]3O)c(-c3ccc4c(c3)OCO4)c2cc1OC [PHYLLANTHOSTATIN A]
  EC50: 4 µg/mL (≈ 6.82 µM)
